Target: T1, human adenosine A2b receptor (Homo sapiens, UniProt P29275)
T1 sequence (P29275 1-332): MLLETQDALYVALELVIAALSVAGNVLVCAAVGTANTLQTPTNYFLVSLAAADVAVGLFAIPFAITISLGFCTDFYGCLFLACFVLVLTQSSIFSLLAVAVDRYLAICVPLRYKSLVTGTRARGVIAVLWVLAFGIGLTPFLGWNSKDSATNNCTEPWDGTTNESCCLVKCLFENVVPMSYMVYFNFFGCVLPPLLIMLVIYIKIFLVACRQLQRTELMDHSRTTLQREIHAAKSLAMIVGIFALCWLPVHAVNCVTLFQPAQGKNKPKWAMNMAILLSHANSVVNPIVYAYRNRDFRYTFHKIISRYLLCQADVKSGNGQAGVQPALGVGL
Assay: Cellular in vitro reporter gene test for A2b receptor activity (antagonism of NECA)
Assay type: cell-based
Set-up: expressed in transfected cells; host or cells: CHO-K1 (Chinese hamster ovary) with CRE-luciferase reporter
Conditions: recombinant CHO-K1 cells, CRE-luciferase reporter, co-incubation with EC50 concentration of NECA, 3 hours
Outline: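 Antagonism measured as block of NECA-induced, cAMP/CRE-dependent luciferase expression in recombinant A2b CHO-K1 cells. NECA used at the EC50 set in a pre-experiment on each test day; luminescence detected after 3 h. Reported as IC50, partly averaged and rounded to two significant figures.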

SMILES	IC50 [nM]
COCCn1c(=O)n(C2(C)CCC2)c(=O)c2c(C)c(CN3CCNC3=NC(=O)OC)sc21 [Example 141, Methyl [1-{[1-(2-methoxyethyl)-5-methyl-3-(1-methylcyclobutyl)-2,4-dioxo-1,2,3,4-tetrahydrothieno[2,3-d]pyrimidin-6-yl]methyl}imidazolidine-2-ylidene]carbamate]	110
COCCn1c(=O)n(C2CC(F)(F)C2)c(=O)c2c(C)c(CN3CCNC(=O)C3=O)sc21 [Example 128, 3-(3,3-Difluorocyclobutyl)-6-[(2,3-dioxopiperazin-1-yl)methyl]-1-(2-methoxyethyl)-5-methylthieno[2,3-d]pyrimidine-2,4(1H,3H)-dione]	36
COC(=O)N=C1NCCN1Cc1sc2c(c1C)c(=O)n(C1CC1)c(=O)n2CCC(F)(F)F [Example 12, Methyl [1-{[3-cyclopropyl-5-methyl-2,4-dioxo-1-(3,3,3-trifluoropropyl)-1,2,3,4-tetrahydrothieno[2,3-d]pyrimidin-6-yl]methyl}imidazolidin-2-ylidene]carbamate]	4.2
Cc1c(CN2CCNC2=O)sc2c1c(=O)n(C1(C)CC1)c(=O)n2C[C@@H]1CCCO1 [Example 82, 5-Methyl-3-(1-methylcyclopropyl)-6-[(2-oxoimidazolidin-1-yl)methyl]-1-[(2S)-tetrahydrofuran-2-ylmethyl]thieno[2,3-d]pyrimidine-2,4(1H,3H)-dione]	77
CCC1(n2c(=O)c3c(C)c(CN4CCNC4=O)sc3n(CCC(F)(F)F)c2=O)CC1 [Example 106, 3-(1-Ethylcyclopropyl)-5-methyl-6-[(2-oxoimidazolidin-1-yl)methyl]-1-(3,3,3-trifluoropropyl)thieno[2,3-d]pyrimidine-2,4(1H,3H)-dione]	41
Cc1c(CN2CCNC2=NC#N)sc2c1c(=O)n(C1CC1)c(=O)n2CCC(F)(F)F [Example 11, [1-{[3-Cyclopropyl-5-methyl-2,4-dioxo-1-(3,3,3-trifluoropropyl)-1,2,3,4-tetrahydrothieno[2,3-d]pyrimidin-6-yl]methyl}imidazolidin-2-ylidene]cyanamide]	3.3
Cc1c(Cn2nc[nH]c2=O)sc2c1c(=O)n(C1CC1)c(=O)n2CC1CC1(F)F (single isomer, unassigned; enantiomer 2) [Example 22, 3-Cyclopropyl-1-[(2,2-difluorocyclopropyl)methyl]-5-methyl-6-[(5-oxo-4,5-dihydro-1H-1,2,4-triazol-1-yl)methyl]thieno[2,3-d]pyrimidine-2,4(1H,3H)-dione (enantiomer 2)]	280
CCOCCn1c(=O)n(C2CC2)c(=O)c2c(C)c(CN3CCNC3=O)sc21 [Example 31, 3-Cyclopropyl-1-(2-ethoxyethyl)-5-methyl-6-[(2-oxoimidazolidin-1-yl)methyl]thieno[2,3-d]pyrimidine-2,4(1H,3H)-dione]	67
Cc1c(CN2CCNC2=O)sc2c1c(=O)n(C1(C)CC1)c(=O)n2CC1CC1(F)F (racemic) [Example 63, 1-[(2,2-Difluorocyclopropyl)methyl]-5-methyl-3-(1-methylcyclopropyl)-6-[(2-oxoimidazolidin-1-yl)methyl]thieno[2,3-d]pyrimidine-2,4(1H,3H)-dione]	12
CO[C@H]1C[C@@H](n2c(=O)c3c(C)c(CN4CCNC4=NC#N)sc3n(CCC(F)(F)F)c2=O)C1 [Example 155, [1-{[3-(cis-3-Methoxycyclobutyl)-5-methyl-2,4-dioxo-1-(3,3,3-trifluoropropyl)-1,2,3,4-tetrahydrothieno[2,3-d]pyrimidin-6-yl]methyl}imidazolidin-2-ylidene]cyanamide]	56
CCCCn1c(=O)n(C2(C)CC2)c(=O)c2c(C)c(Cn3nc[nH]c3=O)sc21 [Example 55, 1-Butyl-5-methyl-3-(1-methylcyclopropyl)-6-[(5-oxo-4,5-dihydro-1H-1,2,4-triaiazol-1-yl)methyl]thieno[2,3-d]pyrimidine-2,4(1H,3H)-dione]	49
CO[C@H]1C[C@H](n2c(=O)c3c(C)c(CN4CCNC4=O)sc3n(CCC(F)(F)F)c2=O)C1 [Example 144, 3-(trans-3-Methoxycyclobutyl)-5-methyl-6-[(2-oxoimidazolidin-1-yl)methyl]-1-(3,3,3-trifluoropropyl)thieno[2,3-d]pyrimidine-2,4(1H,3H)-dione]	10

The next lines start with the values.

IC50 [nM]	SMILES
0.96	Cc1c(CN2CCNC2=NC#N)sc2c1c(=O)n(C1CC1C)c(=O)n2CCOC(F)(F)F (single isomer, unassigned) [Example 266, [1-({5-Methyl-3-(2-methylcyclopropyl)-2,4-dioxo-1-[2-(trifluoromethoxy)ethyl]-1,2,3,4-tetrahydrothieno[2,3-d]pyrimidin-6-yl}methyl)imidazolidin-2-ylidene]cyanamide]
25	Cc1c(CN2CCNC2=O)sc2c1c(=O)n([C@H]1C[C@@H]1C)c(=O)n2CC1CCO1 (single isomer, unassigned) [Example 283]
8.1	COCCn1c(=O)n(C2CC2OC)c(=O)c2c(C)c(CN3CCNC3=O)sc21 (single isomer, unassigned) [Example 307, 3-(2-Methoxycyclopropyl)-1-(2-methoxyethyl)-5-methyl-6-[(2-oxoimidazolidin-1-yl)methyl]thieno[2,3-d]pyrimidine-2,4(1H,3H)-dione]
18	Cc1c(CN2CCNC2=O)sc2c1c(=O)n(C1CC1C)c(=O)n2CC(F)F (single isomer, unassigned) [Example 235, 1-(2,2-Difluoroethyl)-5-methyl-3-(2-methylcyclopropyl)-6-[(2-oxoimidazolidin-1-yl)methyl]thieno[2,3-d]pyrimidine-2,4(1H,3H)-dione]
1.2	CCCn1c(=O)n(C2CC2C)c(=O)c2c(C)c(CN3CCNC3=O)sc21 (single isomer, unassigned) [Example 229, 5-Methyl-3-(2-methylcyclopropyl)-6-[(2-oxoimidazolidin-1-yl)methyl]-1-propylthieno[2,3-d]pyrimidine-2,4(1H,3H)-dione]
5.5	Cc1c(CN2CCNC2=O)sc2c1c(=O)n([C@H]1C[C@@H]1C)c(=O)n2CC1CCC(F)(F)C1 (single isomer, unassigned) [Example 256]
6.3	Cc1c(CN2CCNC2=O)sc2c1c(=O)n([C@H]1C[C@@H]1C)c(=O)n2CC1CC1(F)F (single isomer, unassigned) [Example 251]
7.2	Cc1c(CN2CCNC2=O)sc2c1c(=O)n(C1CC1C)c(=O)n2CC1CC(F)(F)C1 (single isomer, unassigned) [Example 254, 1-[(3,3-Difluorocyclobutyl)methyl]-5-methyl-3-(2-methylcyclopropyl)-6-[(2-oxoimidazolidin-1-yl)methyl]thieno[2,3-d]pyrimidine-2,4(1H,3H)-dione]
11	CCn1c(=O)n(C2CC2C)c(=O)c2c(C)c(CN3CCNC3=O)sc21 (racemic) [Example 224, 1-Ethyl-5-methyl-3-(2-methylcyclopropyl)-6-[(2-oxoimidazolidin-1-yl)methyl]thieno[2,3-d]pyrimidine-2,4(1H,3H)-dione]
26	Cc1c(Cn2nc[nH]c2=O)sc2c1c(=O)n(C1CC3(CCC3)C1)c(=O)n2CCC(F)(F)F [Example 178, 5-Methyl-6-[(5-oxo-4,5-dihydro-1H-1,2,4-triazol-1-yl)methyl]-3-(spiro[3.3]hept-2-yl)-1-(3,3,3-trifluoropropyl)thieno[2,3-d]pyrimidine-2,4(1H,3H)-dione]
26	CCn1c(=O)n(C2CC2C)c(=O)c2c(C)c(CN3CCNC3=O)sc21 (single isomer, unassigned) [Example 225, 1-Ethyl-5-methyl-3-(2-methylcyclopropyl)-6-[(2-oxoimidazolidin-1-yl)methyl]thieno[2,3-d]pyrimidine-2,4(1H,3H)-dione]
4.1	Cc1c(CN2CCNC2=O)sc2c1c(=O)n([C@H]1C[C@@H]1C)c(=O)n2CC1COC1 [Example 285, 5-Methyl-3-[(1S,2S)-2-methylcyclopropyl]-1-(oxetan-3-ylmethyl)-6-[(2-oxoimidazoliddin-1-yl)methyl]thieno[2,3-d]pyrimidine-2,4(1H,3H)-dione]
3900	COCCn1c(=O)n(C2CC2OC)c(=O)c2c(C)c(Cn3nc[nH]c3=O)sc21 (single isomer, unassigned) [Example 310, 3-(2-Methoxycyclopropyl)-1-(2-methoxyethyl)-5-methyl-6-[(5-oxo-4,5-dihydro-1H-1,2,4-triazol-1-yl)methyl]thieno[2,3-d]pyrimidine-2,4(1H,3H)-dione]
20	COCCn1c(=O)n(C2CC2C(F)(F)F)c(=O)c2c(C)c(CN3CCNC3=O)sc21 (racemic) [Example 294, 1-(2-Methoxyethyl)-5-methyl-6-[(2-oxoimidazolidin-1-yl)methyl]-3-[2-(trifluoromethyl)cyclopropyl]thieno[2,3-d]pyrimidine-2,4(1H,3H)-dione]
38	COCCn1c(=O)n(C2(C)CC2)c(=O)c2c(C)c(Cn3cc[nH]c3=O)sc21 [Example 217, 1-(2-Methoxyethyl)-5-methyl-3-(1-methylcyclopropyl)-6-[(2-oxo-2,3-dihydro-1H-imidazol-1-yl)methyl]thieno[2,3-d]pyrimidine-2,4(1H,3H)-dione]

— patent publication US20200016159A1, “N3-CYCLICALLY SUBSTITUTED THIENOURACILS AND USE THEREOF” (Bayer Aktiengesellschaft, priority 2016, published 2020)
